Measured values taken from PubChem BioAssay AID1963867 (Molecular Pharmacology Branch, DTP, NCI, 2024).

Test system: KRAS-mutant PDC tumor spheroid with HUVEC/MSC, viability
Experiment: Anticancer human tumor 327498-153-R-J2-PDC patient-derived uterine carcinosarcoma cell line growth inhibition [KRAS2]
Settings: for viability, T/C: stronger effect = lower value
Source text: Multicellular complex tumor spheroid response to RAS pathway inhibitors in combination with a targeted agents in patient-derived cell lines with oncogenic KRAS variants from multiple cancer types
A high-throughput screen of multi-cell type tumor spheroids was designed to identify active combinations of targeted small molecules and KRAS pathway inhibitors. Complex spheroids include a stromal component modeled by human endothelial cells (HUVEC) and fibroblasts modeled by human mesenchymal stem cells (MSCs). The concentration ranges selected for each drug and investigational agent were based upon clinically achievable concentrations if the clinical Cmax of the agent was known.
Compounds. The drugs and investigational agents: BI-3406 (NSC825286), BAY-293 (NSC824723), batoprotafib (TNO155; NSC825523), sotorasib (AMG 510; NSC818433), MRTX1257 (NSC819558), elimusertib (BAY 1895344; NSC800525), molibresib (GSK525762; NSC774829), temuterkib (LY3214996; NSC803410), venetoclax (NSC766270), alisertib (NSC759677), olaparib (NSC753686), talazoparib (NSC767125), erdafitinib (NSC781556), ipatasertib (NSC767898), cabozantinib (NSC761068), nintedanib (NSC756659), abemaciclib (NSC768073), docetaxel (NSC628503), trametinib (NSC758246), and sapanisertib (NSC764658) were obtained from the National Cancer Institute (NCI) Developmental Therapeutics Program Chemical Repository. The FDA-approved anticancer drug set is available from the Developmental Therapeutics Program. […] The stock solutions were prepared in dimethyl sulfoxide (DMSO, Sigma-Aldrich, St. Louis, MO, cat. D2650) at 800-fold the tested concentration and stored at -70 degrees C prior to their use. All drugs and investigational agents were tested over a range starting from a high concentration at or near the clinical Cmax and decreasing in half-log increments. If the clinical Cmax for an agent had not been determined, the highest concentration tested was 10 microM.
Cell Culture. All cells were maintained in an incubator at 37 degrees C and 5% CO2 with 95% humidity. The PDC lines were cultured according to standard operating procedures established by the NCI PDMR (https://pdmr.cancer.gov/sops/default.htm). Briefly, all PDCs were thawed and cultured in Matrigel-coated flasks prepared with a working solution of 1X Ham's F-12 nutrient mix, without supplementation (Invitrogen, Waltham, MA, cat. 11765054), 100 U/mL penicillin-streptomycin (Invitrogen, cat. 15140122), and 2.5% Matrigel (Corning Inc., Corning, NY, cat. 354248) for the first three passages. All PDCs were cultured in complete DMEM/F-12 media containing advanced DMEM/F-12 (Invitrogen, cat. 12634028), 4.9% defined fetal bovine serum, heat inactivated (HyClone Laboratories Inc., Logan, UT, cat. SH30070.03HI), 389 ng/mL hydrocortisone (Sigma-Aldrich, cat. H4001), 9.7 ng/mL human EGF recombinant protein (Invitrogen, cat. PHG0313), 23.4 microg/mL adenine (Sigma-Aldrich, cat. A2786), 97.3 U/mL penicillin-streptomycin (Invitrogen, cat. 15140122), 1.9 mM L-glutamine (Invitrogen, cat. 25030081), and 9.7 microM Y-27632 dihydrochloride (Tocris Bioscience, Bristol, United Kingdom, cat. 1254). The PDCs were cultured in complete DMEM/F12 media without 9.7 microM Y-27632 dihydrochloride for at least two passages prior to the screen. The established cell line HOP-62 was cultured in RPMI 1640 medium, HEPES (Invitrogen, cat. 22400105) with 10% defined fetal bovine serum (HyClone Laboratories Inc., cat. SH30070.03) and 2 mM L-glutamine (Invitrogen, cat. 25030081). The pooled donor HUVEC were cultured in endothelial cell growth medium 2 (PromoCell, Heidelberg, Germany, cat. C-22011) and the hMSC were cultured in mesenchymal stem cell growth medium 2 (PromoCell, cat. C-28009). For all experiments, HUVEC and hMSC were used at passages </=5, while the malignant cell lines were used at passages </=15. […]

[1] = curve of first compound, second compound 0.1 µM
[2] = curve of first compound, second compound 0.316 µM
[3] = curve of first compound, second compound 1 µM
[4] = curve of first compound, second compound 3.16 µM
[5] = curve of first compound, second compound 10 µM
[6] = second compound 0.1 µM, first compound 0.0316 µM
[7] = second compound 0.1 µM, first compound 0.1 µM
[8] = second compound 0.316 µM, first compound 0.0316 µM
[9] = second compound 0.316 µM, first compound 0.1 µM
[10] = second compound 1 µM, first compound 0.0316 µM
[11] = second compound 1 µM, first compound 0.1 µM
[12] = second compound 3.16 µM, first compound 0.0316 µM
[13] = second compound 3.16 µM, first compound 0.1 µM
[14] = second compound 10 µM, first compound 0.0316 µM
[15] = second compound 10 µM, first compound 0.1 µM
[16] = second compound 0.1 µM, first compound 0.316 µM
[17] = second compound 0.1 µM, first compound 1 µM
[18] = second compound 0.1 µM, first compound 3.16 µM
[19] = second compound 0.1 µM, first compound 10 µM
[20] = second compound 0.316 µM, first compound 0.316 µM
[21] = second compound 0.316 µM, first compound 1 µM
[22] = second compound 0.316 µM, first compound 3.16 µM
[23] = second compound 0.316 µM, first compound 10 µM
[24] = second compound 1 µM, first compound 0.316 µM
[25] = second compound 1 µM, first compound 1 µM
[26] = second compound 1 µM, first compound 3.16 µM
[27] = second compound 1 µM, first compound 10 µM
[28] = second compound 3.16 µM, first compound 0.316 µM
[29] = second compound 3.16 µM, first compound 1 µM
[30] = second compound 3.16 µM, first compound 3.16 µM
[31] = second compound 3.16 µM, first compound 10 µM
[32] = second compound 10 µM, first compound 0.316 µM
[33] = second compound 10 µM, first compound 1 µM
[34] = second compound 10 µM, first compound 3.16 µM
[35] = second compound 10 µM, first compound 10 µM
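Further: spheroids exposed to agents for seven days before reading.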
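Wherever viability, T/C is given: 100% = DMSO vehicle wells so lower means fewer viable cells.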

Row | Compound | IC50 [1] | IC50 [2] | IC50 [3] | IC50 [4] | IC50 [5] | viability, T/C [6] | viability, T/C [7] | viability, T/C [8] | viability, T/C [9] | viability, T/C [10] | viability, T/C [11] | viability, T/C [12] | viability, T/C [13] | viability, T/C [14] | viability, T/C [15] | viability, T/C [16] | viability, T/C [17] | viability, T/C [18] | viability, T/C [19] | viability, T/C [20] | further results
1 | Cn1ncnc1[C@H]1c2n[nH]c(=O)c3cc(F)cc(c23)N[C@@H]1c1ccc(F)cc1 + C=CC(=O)N1CCN(c2nc(=O)n(-c3c(C)ccnc3C(C)C)c3nc(-c4c(O)cccc4F)c(F)cc23)C(C)C1 | 0.00387 µM | 0.00346 µM | 0.00197 µM | 0.00174 µM | < 0.000316 µM | 22.2% | 15.6% | 19.8% | 15.4% | 21% | 15.9% | 21.7% | 14.8% | 16.9% | 13.4% |  |  |  |  |  | viability, T/C (second compound 0.1 µM, first compound 0.000316 µM): 63.7%; viability, T/C (second compound 0.1 µM, first compound 0.001 µM): 58.6%; viability, T/C (second compound 0.1 µM, first compound 0.00316 µM): 54%; viability, T/C (second compound 0.1 µM, first compound 0.01 µM): 36.1%; viability, T/C (second compound 0.316 µM, first compound 0.000316 µM): 54.8%; viability, T/C (second compound 0.316 µM, first compound 0.001 µM): 60.3%; viability, T/C (second compound 0.316 µM, first compound 0.00316 µM): 49.1%; viability, T/C (second compound 0.316 µM, first compound 0.01 µM): 36.9%; viability, T/C (second compound 1 µM, first compound 0.000316 µM): 59%; viability, T/C (second compound 1 µM, first compound 0.001 µM): 59.5%; viability, T/C (second compound 1 µM, first compound 0.00316 µM): 42.7%; viability, T/C (second compound 1 µM, first compound 0.01 µM): 34.1%; viability, T/C (second compound 3.16 µM, first compound 0.000316 µM): 55.9%; viability, T/C (second compound 3.16 µM, first compound 0.001 µM): 53%; viability, T/C (second compound 3.16 µM, first compound 0.00316 µM): 47%; viability, T/C (second compound 3.16 µM, first compound 0.01 µM): 32.4%; viability, T/C (second compound 10 µM, first compound 0.000316 µM): 39.9%; viability, T/C (second compound 10 µM, first compound 0.001 µM): 45.1%; viability, T/C (second compound 10 µM, first compound 0.00316 µM): 34.1%; viability, T/C (second compound 10 µM, first compound 0.01 µM): 20.5%
2 | CNCc1ccccc1-c1csc(C(C)Nc2nc(C)nc3cc(OC)c(OC)cc23)c1 (stereo not given) |  |  |  |  |  |  |  |  |  |  |  |  |  |  |  |  |  |  |  |  | viability, T/C (compound 0.1 µM): 85.7% [middle of 17 runs]; viability, T/C (compound 0.316 µM): 77.5% [middle of 17 runs]; viability, T/C (compound 10 µM): 1.07% [middle of 17 runs]; IC50 (compound alone, run of 07/19/2021): 1.43 µM [middle of 5 runs]; IC50 (compound alone, run of 07/26/2021): 1.48 µM [middle of 5 runs]
3 | COc1cc(Nc2ncc3c(n2)-c2ccc(Cl)cc2C(c2c(F)cccc2OC)=NC3)ccc1C(=O)O + COc1cc2nc(C)nc(NC(C)c3cc(N)cc(C(F)(F)F)c3)c2cc1OC1CCOC1 | < 0.0316 µM | < 0.0316 µM | < 0.0316 µM | < 0.0316 µM | < 0.0316 µM | 17.7% | 12.6% | 16.1% | 11.8% | 13.3% | 10.3% | 13.1% | 10.9% | 8.09% | 8.45% | 9.32% | 9.41% | 13.8% | 12.8% | 12.2% | viability, T/C [21]: 9.86%; viability, T/C [22]: 12.5%; viability, T/C [23]: 12.2%; viability, T/C [24]: 13.1%; viability, T/C [25]: 10.5%; viability, T/C [26]: 11.7%; viability, T/C [27]: 11.5%; viability, T/C [28]: 9.78%; viability, T/C [29]: 9.93%; viability, T/C [30]: 10.5%; viability, T/C [31]: 10.5%; viability, T/C [32]: 5.81%; viability, T/C [33]: 4.52%; viability, T/C [34]: 8.87%; viability, T/C [35]: 4.93%
4 | Cn1nccc1Nc1nccc(-c2cc3c(s2)C(C)(C)N(CCN2CCOCC2)C3=O)n1 + CC1OCC2(CCN(c3cnc(Sc4ccnc(N)c4Cl)c(N)n3)CC2)C1N | 0.644 µM | 0.0611 µM | < 0.0316 µM | < 0.0316 µM | < 0.0316 µM | 74.2% | 60.7% | 53.4% | 47% | 37.8% | 39.9% | 30.3% | 29.7% | 23.3% | 22.2% | 59.1% | 45.6% | 39.1% | 36.5% | 43.2% | viability, T/C [21]: 40.4%; viability, T/C [22]: 38.1%; viability, T/C [23]: 27.6%; viability, T/C [24]: 32.1%; viability, T/C [25]: 30.8%; viability, T/C [26]: 28.6%; viability, T/C [27]: 26.4%; viability, T/C [28]: 25.3%; viability, T/C [29]: 22.2%; viability, T/C [30]: 21.9%; viability, T/C [31]: 19.9%; viability, T/C [32]: 16.9%; viability, T/C [33]: 15.8%; viability, T/C [34]: 17.1%; viability, T/C [35]: 15.9%
